Reference: patent US9586956B2, “Isoquinoline and naphthyridine derivatives” (Genentech, Inc., priority 2012, dated 2017)

Target: T1, purified human MAP4K4 kinase domain (Homo sapiens, UniProt O95819)
T1 construct: purified human MAP4K4 kinase domain
Experiment: MAP4K4 Inhibition Assay Protocol No. 1 (Caliper LabChip, moesin-derived peptide phosphorylation)
Format: biochemical
Conditions: Assay 1; 1 nM enzyme, 10 uM ATP, 45 min
Method: The kinase activity of purified human MAP4K4 kinase domain was measured by monitoring the phosphorylation of a peptide substrate derived from moesin protein (Leu-Gly-Arg-Asp-Lys-Tyr-Lys-Thr-Leu-Arg-Gln-Ile-Arg-Gln) fluorescently labeled on the N-terminus with 5-carboxyfluorescein using the Caliper LabChip technology (Caliper Life Sciences, Hopkinton, Mass.). To determine inhibition constants (IC50), compounds were serially diluted in DMSO and added to 10 uL kinase reactions containing 1 nM purified MAP4K4 enzyme, 1 uM peptide substrate, 10 uM ATP, 10 mM MgCl2, 1 mM EGTA, 50 mM Hepes pH 7.2, 1 mM DTT, 0.01% Triton X-100, and 2% DMSO. Reactions were incubated at room temperature in Perkin Elmer Proxiplates for 45 minutes and stopped by the addition of 10 uL of an EDTA-containing solution (50 mM Hepes pH 7.2, 40 mM EDTA, 0.02% Triton X-100). The fraction of phosphorylated peptide was determined as a fraction of total peptide substrate using the Caliper Lab Chip 3000 according to the manufacturer's instructions. IC50 values were determined using the four-parameter non-linear fit model.

T1 sequence (O95819 25-289 limits assumed): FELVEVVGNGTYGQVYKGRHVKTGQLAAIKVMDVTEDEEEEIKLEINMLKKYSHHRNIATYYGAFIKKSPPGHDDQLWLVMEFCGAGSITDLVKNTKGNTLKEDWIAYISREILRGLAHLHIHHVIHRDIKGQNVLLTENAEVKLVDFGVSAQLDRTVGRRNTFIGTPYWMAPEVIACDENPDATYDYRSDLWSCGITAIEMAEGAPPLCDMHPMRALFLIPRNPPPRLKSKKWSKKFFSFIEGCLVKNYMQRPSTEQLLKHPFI

IC50 [µM] | Compound
0.0565 | 1-amino-7-(3-fluorophenyl)- N-(4-hydroxycyclohexyl) isoquinoline-4-carboxamide [Example 113]
1.4 | 1-amino-N-[2-(3,5-dimethyl- pyrazol-1-yl)ethyl]-7- (3-fluorophenyl) isoquinoline-4-carboxamide [Example 79]
0.122 | CN(C)C(=O)c1nc(CNC(=O)c2cnc(N)c3cc(-c4cccc(F)c4)ccc23)no1 [Example 1, 3-[[[1-amino-7-(3-fluorophenyl)isoquinoline-4-carbonyl]amino]methyl]-N,N-dimethyl-1,2,4-oxadiazole-5-carboxamide]
0.299 | Nc1ncc(-c2nc3ccccc3[nH]2)c2ccc(-c3cccc(F)c3)cc12 [Example 2, 4-(1H-benzimidazol-2-yl)-7-(3-fluorophenyl)isoquinolin-1-amine]
0.0388 | Nc1ncc(C(=O)NC2CC(O)C2)c2ccc(-c3cccc(F)c3)cc12 (stereo not shown) [Example 3, 1-amino-7-(3-fluorophenyl)-N-(3-hydroxycyclobutyl)isoquinoline-4-carboxamide]
0.0221 | N#Cc1cnc(N)c2cc(-c3cccc(F)c3)ccc12 [Example 4, 1-amino-7-(3-fluorophenyl)isoquinoline-4-carbonitrile]
1.2 | NCc1cnc(N)c2cc(-c3cccc(F)c3)ccc12 [Example 5, 4-(aminomethyl)-7-(3-fluorophenyl)isoquinolin-1-amine]
0.0506 | CC(=O)N1CC(NC(=O)c2cnc(N)c3cc(-c4cccc(F)c4)ccc23)C1 [Example 9, N-(1-acetylazetidin-3-yl)-1-amino-7-(3-fluorophenyl)isoquinoline-4-carboxamide]
0.00129 | Nc1ncc(C(=O)NC2CC2)c2ccc(-c3cccc(F)c3)nc12 [Example 13, 8-amino-N-cyclopropyl-2-(3-fluorophenyl)-1,7-naphthyridine-5-carboxamide]
0.0841 | Nc1ncc(C(=O)NCCN2CCOCC2)c2ccc(-c3cccc(F)c3)cc12 [Example 45, 1-amino-7-(3-fluorophenyl)-N-(2-morpholinoethyl) isoquinoline-4-carboxamide]
2.4 | CN(C)CCNC(=O)c1cnc(N)c2cc(-c3cccc(F)c3)ccc12 [Example 46, 1-amino-N-[2-(dimethylamino)ethyl]-7-(3-fluorophenyl) isoquinoline-4-carboxamide]
1.6 | Nc1ncc(C(=O)NCCN2CCCC2)c2ccc(-c3cccc(F)c3)cc12 [Example 47, 1-amino-7-(3-fluorophenyl)-N-(2-pyrrolidin-1-ylethyl)isoquinoline-4-carboxamide]
4.2 | CS(=O)(=O)N1CCN(C(=O)c2cnc(N)c3cc(-c4cccc(F)c4)ccc23)CC1 [Example 48, [1-amino-7-(3-fluorophenyl)-4-isoquinolyl]-(4-methylsulfonylpiperazin-1-yl)methanone]
2.6 | CC(=O)N1CCN(C(=O)c2cnc(N)c3cc(-c4cccc(F)c4)ccc23)CC1 [Example 49, 1-[4-[1-amino-7-(3-fluorophenyl)isoquinoline-4-carbonyl]piperazin-1-yl] ethanone]
1.5 | NC(=O)C1CCN(C(=O)c2cnc(N)c3cc(-c4cccc(F)c4)ccc23)CC1 [Example 50, 1-[1-amino-7-(3-fluorophenyl)isoquinoline-4-carbonyl] piperidine-4-carboxamide]
2 | NC(=O)C1CCCN(C(=O)c2cnc(N)c3cc(-c4cccc(F)c4)ccc23)C1 (stereo not shown) [Example 51, 1-[1-amino-7-(3-fluorophenyl)isoquinoline-4-carbonyl] piperidine-3-carboxamide]
1.5 | CN(C)C(=O)CN1CCN(C(=O)c2cnc(N)c3cc(-c4cccc(F)c4)ccc23)CC1 [Example 52, 2-[4-[1-amino-7-(3-fluorophenyl)isoquinoline-4-carbonyl]piperazin-1-yl]-N,N-dimethyl-acetamide]
0.388 | Nc1ncc(C(=O)NCCS(=O)(=O)N2CCCC2)c2ccc(-c3cccc(F)c3)cc12 [Example 53, 1-amino-7-(3-fluorophenyl)-N-(2-pyrrolidin-1-ylsulfonylethyl) isoquinoline-4-carboxamide]
0.0175 | COCc1ccc(NC(=O)c2cnc(N)c3cc(-c4cccc(F)c4)ccc23)cc1 [Example 54, 1-amino-7-(3-fluorophenyl)-N-[4-(methoxymethyl)phenyl]isoquinoline-4-carboxamide]
0.622 | Nc1ncc(C(=O)N2CCC(CO)CC2)c2ccc(-c3cccc(F)c3)cc12 [Example 55, [1-amino-7-(3-fluorophenyl)-4-isoquinolyl]-[4-(hydroxy-methyl)-1-piperidyl] methanone]

IC50 [µM] | Compound
0.249 | Nc1ncc(C(=O)NCC2CCOCC2)c2ccc(-c3cccc(F)c3)cc12 [Example 56, 1-amino-7-(3-fluorophenyl)-N-(tetrahydropyran-4-ylmethyl)isoquinoline-4-carboxamide]
0.102 | CC(=O)N1CCC(NC(=O)c2cnc(N)c3cc(-c4cccc(F)c4)ccc23)CC1 [Example 57, N-(1-acetyl-4-piperidyl)-1-amino-7-(3-fluorophenyl) isoquinoline-4-carboxamide]
0.146 | Nc1ncc(C(=O)NCCN2CCCCC2=O)c2ccc(-c3cccc(F)c3)cc12 [Example 58, 1-amino-7-(3-fluorophenyl)-N-[2-(2-oxo-1-piperidyl)ethyl]isoquinoline-4-carboxamide]
0.0999 | Nc1ncc(C(=O)NCC2CCOC2)c2ccc(-c3cccc(F)c3)cc12 (stereo not shown) [Example 59, 1-amino-7-(3-fluorophenyl)-N-(tetrahydrofuran-3-ylmethyl)isoquinoline-4-carboxamide]
0.238 | CNC(=O)C1CN(C(=O)c2cnc(N)c3cc(-c4cccc(F)c4)ccc23)CCO1 (stereo not shown) [Example 60, 4-[1-amino-7-(3-fluorophenyl)isoquinoline-4-carbonyl]-N-methyl-morpholine-2-carboxamide]
0.0368 | NC(=O)c1nc(CNC(=O)c2cnc(N)c3cc(-c4cccc(F)c4)ccc23)no1 [Example 61, 3-[[[1-amino-7-(3-fluorophenyl)isoquinoline-4-carbonyl]amino]methyl]-1,2,4-oxadiazole-5-carboxamide]
0.0338 | Nc1ncc(C(=O)Nc2ccccc2)c2ccc(-c3cccc(F)c3)cc12 [Example 62, 1-amino-7-(3-fluorophenyl)-N-phenyl-isoquinoline-4-carboxamide]
0.0127 | Nc1ncc(C(=O)Nc2ccc(CO)cc2)c2ccc(-c3cccc(F)c3)cc12 [Example 63, 1-amino-7-(3-fluorophenyl)-N-[4-(hydroxymethyl)phenyl]isoquinoline-4-carboxamide]
0.34 | Nc1ncc(C(=O)NCCCN2CCOCC2)c2ccc(-c3cccc(F)c3)cc12 [Example 64, 1-amino-7-(3-fluorophenyl)-N-(3-morpholinopropyl) isoquinoline-4-carboxamide]
1.7 | Nc1ncc(C(=O)N2CCN(CCO)CC2)c2ccc(-c3cccc(F)c3)cc12 [Example 65, [1-amino-7-(3-fluorophenyl)-4-isoquinolyl]-[4-(2-hydroxyethyl)piperazin-1-yl]methanone]
0.0327 | NC(=O)c1cnc(N)c2cc(-c3cccc(F)c3)ccc12 [Example 66, 1-amino-7-(3-fluorophenyl) isoquinoline-4-carboxamide]
0.651 | CN1CCC(NC(=O)c2cnc(N)c3cc(-c4cccc(F)c4)ccc23)CC1 [Example 67, 1-amino-7-(3-fluorophenyl)-N-(1-methyl-4-piperidyl) isoquinoline-4-carboxamide]
0.12 | Nc1ncc(C(=O)NC2CCOCC2)c2ccc(-c3cccc(F)c3)cc12 [Example 68, 1-amino-7-(3-fluorophenyl)-N-tetrahydropyran-4-yl-isoquinoline-4-carboxamide]
0.35 | Nc1ncc(C(=O)NCCN2CCC(O)CC2)c2ccc(-c3cccc(F)c3)cc12 [Example 69, 1-amino-7-(3-fluorophenyl)-N-[2-(4-hydroxy-1-piperidyl)ethyl] isoquinoline-4-carboxamide]
0.0852 | Nc1ncc(C(=O)NC2CCCC(O)C2)c2ccc(-c3cccc(F)c3)cc12 (stereo not shown) [Example 70, 1-amino-7-(3-fluorophenyl)-N-(3-hydroxycyclohexyl) isoquinoline-4-carboxamide]
0.0395 | CNC(=O)c1cnc(N)c2cc(-c3cccc(F)c3)ccc12 [Example 74, 1-amino-7-(3-fluorophenyl)-N-methyl-isoquinoline-4-carboxamide]
0.0148 | COc1ccc(NC(=O)c2cnc(N)c3cc(-c4cccc(F)c4)ccc23)cc1 [Example 75, 1-amino-7-(3-fluorophenyl)-N-(4-methoxyphenyl) isoquinoline-4-carboxamide]
0.245 | Nc1ncc(C(=O)NCCN2CCS(=O)(=O)CC2)c2ccc(-c3cccc(F)c3)cc12 [Example 76, 1-amino-N-[2-(1,1-dioxo-1,4-thiazinan-4-yl)ethyl]-7-(3-fluorophenyl) isoquinoline-4-carboxamide]
0.507 | Nc1ncc(C(=O)NCCN2CCCC2=O)c2ccc(-c3cccc(F)c3)cc12 [Example 77, 1-amino-7-(3-fluorophenyl)-N-[2-(2-oxopyrrolidin-1-yl)ethyl]isoquinoline-4-carboxamide]
2.4 | CC(C)(N)CNC(=O)c1cnc(N)c2cc(-c3cccc(F)c3)ccc12 [Example 78, 1-amino-N-(2-amino-2-methyl-propyl)-7-(3-fluorophenyl) isoquinoline-4-carboxamide]
